For test [1], the target named is T1, β‐glucuronidase (Escherichia coli, UniProt P05804).
T1 construct: purchased Sigma (USA)
The experiment in a line: inhibition kinetics (Michaelis‐Menten, Lineweaver‐Burk and slope plots) of PNPG hydrolysis. It counts as biochemical. The following applies: for mode of inhibition: Lineweaver‐Burk plots, PNPG hydrolysis; for Ki: PNPG 200-1000 μM, from slope plots of Lineweaver‐Burk plots. From the text:
To analyze the binding interactions between the tested inhibitors and the target enzyme, we constructed Michaelis‐Menten and Lineweaver‐Burk plots. These plots helped us understand how the inhibitors affect the enzyme′s kinetics. The Lineweaver‐Burk plot′s intersection point was used to identify the inhibition mode (noncompetitive, competitive, uncompetitive, or mixed). Established methods were employed to determine the specific inhibition mode and Ki values.[27, 28]
(§1) To ensure reproducibility, all data are presented as the mean value±standard deviation (SD). This reflects the average value obtained from three independent trials. IC50 values, signifying the inhibitor concentration required for half‐maximal response, were determined from the concentration‐response curves. The IC50 and inhibition constant (Ki) values were estimated using nonlinear regression by the GraphPad Prism 9.0 software.

Test [2] deals with T1, β‐glucuronidase. The experiment in a line: in vitro β‐glucuronidase inhibition assay with PNPG as substrate. In kind it is biochemical. The following applies: pH 7.4, 37 °C, 30 min, mean±SD; for IC50: PNPG substrate; for inhibition at 10 µM: inhibitor 10 μM, PNPG 250 μM, read-out: Inhibition rate 10 μM (%).
Source text: The substrate p‐Nitrophenyl‐β‐D‐glucuronide (PNPG) and the employed reference drug (−)‐Epigallocatechin gallate (EGCG) were purchased from Sigma‐Aldrich. For this study, β‐glucuronidase, the enzyme of interest, was purchased from Sigma (USA). All other chemicals and solvents used were in the highest purity state or HPLC grade. Five isolated flavonoids from A. graecorum were assigned for their β‐glucuronidase inhibitory efficacy. We prepared the β‐glucuronidase enzyme according to the method reported by Weng et al..[27] A 100 mM stock solution of the substrate (PNPG) was prepared using […] and stored at −20 °C for subsequent utilization. Milli‐Q water was used exclusively for both the PNPG solution and the 0.1 M phosphate buffer solution (pH 7.4).
To estimate the activities of tested flavonoids as inhibitors against β‐glucuronidase, we employed PNPG as the substrate. The assessment procedure followed well‐documented previously reported protocols.[28] In brief, 96‐well plate assays were performed (100 μL/well) to assess β‐glucuronidase inhibition by flavonoids. Each well contained: β‐glucuronidase (2 μg/mL, 10 μL), flavonoid/EGCG inhibitor (10 μM, 10 μL), PNPG substrate (250 μM, 10 μL), and PBS buffer (pH 7.4, 70 μL). Reactions were done in triplicate. Enzyme activity was estimated by tracking PNP formation (OD₄₁₀ nm) after incubation (37 °C, 30 min). A standard curve (0–120 μM PNP) was used to quantify PNP. Relative activity (%) was calculated compared to the blank control. In addition, EGCG was employed as a reference drug. IC50 assays for flavonoid inhibition of β‐glucuronidase were conducted at temperature of 37 °C for 30 minutes. Each reaction contained: β‐glucuronidase (2.0 μg/mL, 10 μL), flavonoid/EGCG (varying concentrations, 0.001–1000 μM, 10 μL), and PBS buffer (pH 7.4, 70 μL). Relative activity (%) was measured as enzyme activity with an inhibitor compared to activity without an inhibitor. A concentration‐response curve was constructed using relative activity data to determine IC50 values.
as §1

The record followed here is PMC11891452, “Molecular Insights Into β‐Glucuronidase Inhibition by Alhagi Graecorum Flavonoids: A Computational and Experimental Approach” (ChemistryOpen, 2024).

T1 sequence (P05804 whole entry): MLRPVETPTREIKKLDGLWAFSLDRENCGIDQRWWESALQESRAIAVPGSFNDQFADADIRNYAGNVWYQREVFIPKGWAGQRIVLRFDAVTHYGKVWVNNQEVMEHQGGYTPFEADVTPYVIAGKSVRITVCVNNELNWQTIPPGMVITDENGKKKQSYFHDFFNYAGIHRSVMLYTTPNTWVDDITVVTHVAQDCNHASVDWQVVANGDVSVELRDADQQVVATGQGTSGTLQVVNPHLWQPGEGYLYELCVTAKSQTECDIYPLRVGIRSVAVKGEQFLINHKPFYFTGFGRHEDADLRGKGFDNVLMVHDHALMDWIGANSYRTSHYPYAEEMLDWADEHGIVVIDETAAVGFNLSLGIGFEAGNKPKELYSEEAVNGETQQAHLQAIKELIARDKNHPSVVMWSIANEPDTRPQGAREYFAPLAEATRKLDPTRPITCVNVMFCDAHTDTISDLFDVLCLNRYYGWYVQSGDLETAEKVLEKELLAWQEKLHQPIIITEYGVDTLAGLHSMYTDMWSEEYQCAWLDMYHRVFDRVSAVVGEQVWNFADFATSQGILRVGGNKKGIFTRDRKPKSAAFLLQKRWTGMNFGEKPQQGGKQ

By Ki is commonly meant the equilibrium dissociation constant of an inhibitor or competing ligand from its target. By IC50 is commonly meant the concentration needed to halve the response being measured. Read a high IC50 as weaker potency. One may read the inhibition as how much of the control response was suppressed. Take `O=C(O[C@@H]1Cc2c(O)cc(O)cc2O[C@@H]1c1cc(O)c(O)c(O)c1)c1cc(O)c(O)c(O)c1` [EGCG, (−)‐Epigallocatechin gallate, reference compound]: at β‐glucuronidase [1], the mode of inhibition entry is listed as “mixed” and the affinity, expressed as Ki, was 1.42 µM. Also, on β‐glucuronidase [2], it took 3.26 ± 0.05 µM to reach half-maximal inhibition (IC50) and the inhibition at 10 µM is 96.14 ± 0.54%.
On to `COc1cc(-c2cc(=O)c3c(O)cc(O)cc3o2)ccc1O` [chrysoeriol], for which the mode of inhibition result at β‐glucuronidase [1] was “noncompetitive”. In addition, on β‐glucuronidase [2], the inhibition at 10 µM worked out at 87.97 ± 0.65%.
Consider `COc1cc(-c2oc3cc(O)cc(O)c3c(=O)c2O)ccc1O` [isorhamnetin], for which, at β‐glucuronidase [2], the midpoint of inhibition, the IC50, lay at 26.4 ± 0.72 µM and the inhibition at 10 µM stood at 73.9 ± 1.09%.
Consider `O=c1c(O)c(-c2cc(O)c(O)c(O)c2)oc2cc(O)cc(O)c12` [myricetin], for which, at β‐glucuronidase [1], the mode of inhibition result is listed as “noncompetitive” and the inhibition constant Ki came out at 3.07 µM. Further, at β‐glucuronidase [2], half-maximal inhibition (IC50) required 3.95 ± 0.04 µM and the inhibition at 10 µM is 92.59 ± 0.56%.
Turning to `O=C1C[C@@H](c2ccc(O)cc2)Oc2cc(O)cc(O)c21` [naringenin], on β‐glucuronidase [2], the IC50 amounted to 52.3 ± 2.44 µM and the inhibition at 10 µM is 56 ± 2.5%.
For `COc1ccc(-c2oc3cc(O)cc(O)c3c(=O)c2O)cc1O` [tamarixetin], on β‐glucuronidase [2], the IC50 came out at 19.9 ± 1.23 µM and the inhibition at 10 µM turned out to be 80 ± 1.71%.
